In the oligonucleotide strings, read from the 5' end, every base follows the letter of its sugar. An asterisk marks phosphorothioate; unmarked linkages are phosphodiester. Other units and linkages are bracketed, terminal groups are in braces. A string of capitals states the bases alone. {NAG37} = tridentate N-acetyl-galactosamine targeting ligand, structure (NAG37)s; [invAb] = inverted abasic unit; m = 2'-O-methyl; f = 2'-fluoro
What was measured:
ANGPTL3 gene = test: Example 14: RNAi agent and statin, serum triglycerides in LDLR knockout mice; type: in vivo, LDLR KO mice
From the text: To evaluate the effect of co-administration of RNAi agents and statins in a disease model, LDLR KO mice were commercially obtained (The Jackson Laboratory). For three weeks prior to the onset of the study, forty-one (41) male 7 to 8 week old LDLR KO mice were placed on a high fat (“western”) diet (Teklad Custom Diets TD.88137), and remained on that diet throughout the duration of the study. Pre-dose serum samples were taken on study Day 1 after a four hour fast. The dosing regimen for the study is recited in the following Table 72:
• Mice were treated at 40 mg/kg for the first 11 days, then switched to 20 mg/kg thereafter.
The vehicle used for the oral gavage in the study was a 1:1 mixture of Ora-Plus®: Ora-Sweet® solution, which were acquired commercially. For the preparation of the atorvastatin oral gavage administrations, the respective desired dose of atorvastatin was first dissolved in sterile water (0.3 mL water per 1 mL of desired formulation) and vortexed until smooth, followed by the addition of a mixture of 1:1 Ora-Plus®: Ora-Sweet® solution (0.7 mL vehicle per 1 mL of desired formulation) and vortexed. On day 1 and for each day thereafter an oral gavage dose was administered for each of the Groups except for Group 2. On Day 23, Groups 1, 2, 3, and 4 received a single subcutaneous administration of 2.5 mg/kg dose ([…] solution) of an ANGPTL3 RNAi agent in D5W (dextrose in 5% water), or vehicle control (D5W) with no RNAi agent.
The RNAi agent tested (AD05488) included a modified sequence and an N-acetyl-galactosamine-containing targeting ligand conjugated to the 5′ terminal end of the sense strand. (See Tables 3, 4, and 5 for modified sequences and targeting ligand structures). The injections were performed between the skin and muscle (i.e. subcutaneous injections) into the loose skin over the neck and shoulder area. Serum was collected on days 8, 15, 22 (pre-RNAi agent injection), 29, 36, 43, and 50. LDLR KO mice were fasted for four hours prior to each collection.
ANGPTL3 protein levels in serum were measured by ELISA assay (R&D Systems), according to the manufacturer's recommendations. Among other biomarkers, triglycerides, total cholesterol, and low-density lipoprotein (LDL) in serum were measured on a Cobas® Integra 400 (Roche Diagnostics), according to the manufacturer's recommendations.
The ANGPTL3 protein levels, triglyceride levels, total cholesterol levels, HDL levels, and LDL levels for each animal were normalized. For normalization, respective levels of ANGPTL3 protein, TG, total cholesterol, or LDL for each animal at a time point was divided by the pre-treatment level of expression in that animal (in this case pre-dose levels on Day 1) to determine the ratio of expression “normalized to pre-treatment.” Data from the study set forth in this Example are shown in the following Tables 73-76: […]

ANGPTL3 protein = test: Example 9: serum ANGPTL3 protein by ELISA in cynomolgus monkeys; type: in vivo, cynomolgus macaque (Macaca fascicularis); conditions: for Average ANGPTL3 Protein Normalized to Pre-Treatment: 2.0 mg/kg single SC injection day 1, cynos, n=3
Protocol: Additional ANGPTL3 RNAi agents were evaluated in cynomolgus monkeys. On day 1, cynomolgus macaque (Macaca fascicularis) primates (also referred to herein as “cynos”) were administered a single subcutaneous injection of 0.3 mL/kg (approximately 2-3 mL volume, depending on animal mass) containing 2.0 mg/kg of an ANGPTL3 RNAi agent, which included either AD05488, AD05743, AD05775, or AD05841, each formulated in saline. […] ANGPTL3 RNAi agents AD05488, AD05743, and AD05775 included nucleotide sequences designed to target position 304 of the ANGPTL3 gene. ANGPTL3 RNAi agent AD05841 included nucleotide sequences designed to target position 1035 of the ANGPTL3 gene.
Three (3) cynos in each group were tested (n=3). Blood samples were drawn and serum samples were analyzed on days −14 (predose), −7 (predose), 1 (pre-dose), 8, 15, 22, 29, and 35. Cynos were fasted overnight prior to each collection. ANGPTL3 protein levels in serum were measured by ELISA assay (R&D Systems), according to the manufacturer's recommendations. Triglycerides, total cholesterol, high-density lipoprotein (HDL), and low-density lipoprotein (LDL) in serum were measured on a Cobas® Integra 400 (Roche Diagnostics), according to the manufacturer's recommendations.
The ANGPTL3 protein levels, triglyceride levels, total cholesterol levels, HDL levels, and LDL levels for each animal were normalized. For normalization, the level of ANGPTL3 protein, triglyceride, HDL, and total cholesterol, respectively, for each animal at a time point, was divided by the average pre-treatment level of expression in that animal (in this case at days −14, −7, and 1) to determine the ratio of expression “normalized to pre-treatment.”

AD05488: RNAi agent duplex: antisense AM07235-AS, sense AM07234-SS (antisense mU*fA*mC*fUmGfAmUfCmAfAmAfUmAfUmGfUmUfGmAfG*mC; sense {NAG37}*[invAb]*mGmCmUmCmAmAmCmAfUfAfUmUmUmGmAmUmCmAmGmUmA*[invAb])
Avg TG normalized to pre-treatment (ANGPTL3 gene; Group 2: no gavage, 2.5 mg/kg AD05488 SC on day 23, Day 8 (pre-RNAi agent injection)): 0.988
Avg TG normalized to pre-treatment (ANGPTL3 gene; Group 2: no gavage, 2.5 mg/kg AD05488 SC on day 23, Day 15 (pre-RNAi agent injection)): 1.247
Avg TG normalized to pre-treatment (ANGPTL3 gene; Group 2: no gavage, 2.5 mg/kg AD05488 SC on day 23, Day 22 (pre-RNAi agent injection)): 1.524
Avg TG normalized to pre-treatment (ANGPTL3 gene; Group 2: no gavage, 2.5 mg/kg AD05488 SC on day 23, Day 29): 0.166
Avg TG normalized to pre-treatment (ANGPTL3 gene; Group 2: no gavage, 2.5 mg/kg AD05488 SC on day 23, Day 36): 0.125
Avg TG normalized to pre-treatment (ANGPTL3 gene; Group 2: no gavage, 2.5 mg/kg AD05488 SC on day 23, Day 43): 0.139
Avg TG normalized to pre-treatment (ANGPTL3 gene; Group 2: no gavage, 2.5 mg/kg AD05488 SC on day 23, Day 50): 0.153
Avg TG normalized to pre-treatment (ANGPTL3 gene; Group 3: 10 mg/kg daily oral gavage atorvastatin, 2.5 mg/kg AD05488 on day 23, Day 8 (pre-RNAi agent injection)): 0.613
Avg TG normalized to pre-treatment (ANGPTL3 gene; Group 3: 10 mg/kg daily oral gavage atorvastatin, 2.5 mg/kg AD05488 on day 23, Day 15 (pre-RNAi agent injection)): 0.436
Avg TG normalized to pre-treatment (ANGPTL3 gene; Group 3: 10 mg/kg daily oral gavage atorvastatin, 2.5 mg/kg AD05488 on day 23, Day 22 (pre-RNAi agent injection)): 0.614
Avg TG normalized to pre-treatment (ANGPTL3 gene; Group 3: 10 mg/kg daily oral gavage atorvastatin, 2.5 mg/kg AD05488 on day 23, Day 29): 0.072
Avg TG normalized to pre-treatment (ANGPTL3 gene; Group 3: 10 mg/kg daily oral gavage atorvastatin, 2.5 mg/kg AD05488 on day 23, Day 36): 0.058
Avg TG normalized to pre-treatment (ANGPTL3 gene; Group 3: 10 mg/kg daily oral gavage atorvastatin, 2.5 mg/kg AD05488 on day 23, Day 43): 0.076
Avg TG normalized to pre-treatment (ANGPTL3 gene; Group 3: 10 mg/kg daily oral gavage atorvastatin, 2.5 mg/kg AD05488 on day 23, Day 50): 0.065
Avg TG normalized to pre-treatment (ANGPTL3 gene; Group 4: 20 mg/kg* daily oral gavage atorvastatin (40 mg/kg first 11 days), 2.5 mg/kg AD05488 on day 23, Day 8 (pre-RNAi agent injection)): 0.567
Avg TG normalized to pre-treatment (ANGPTL3 gene; Group 4: 20 mg/kg* daily oral gavage atorvastatin (40 mg/kg first 11 days), 2.5 mg/kg AD05488 on day 23, Day 15 (pre-RNAi agent injection)): 0.526
Avg TG normalized to pre-treatment (ANGPTL3 gene; Group 4: 20 mg/kg* daily oral gavage atorvastatin (40 mg/kg first 11 days), 2.5 mg/kg AD05488 on day 23, Day 22 (pre-RNAi agent injection)): 0.748
Avg TG normalized to pre-treatment (ANGPTL3 gene; Group 4: 20 mg/kg* daily oral gavage atorvastatin (40 mg/kg first 11 days), 2.5 mg/kg AD05488 on day 23, Day 29): 0.071
Avg TG normalized to pre-treatment (ANGPTL3 gene; Group 4: 20 mg/kg* daily oral gavage atorvastatin (40 mg/kg first 11 days), 2.5 mg/kg AD05488 on day 23, Day 36): 0.058
Avg TG normalized to pre-treatment (ANGPTL3 gene; Group 4: 20 mg/kg* daily oral gavage atorvastatin (40 mg/kg first 11 days), 2.5 mg/kg AD05488 on day 23, Day 43): 0.089
Avg TG normalized to pre-treatment (ANGPTL3 gene; Group 4: 20 mg/kg* daily oral gavage atorvastatin (40 mg/kg first 11 days), 2.5 mg/kg AD05488 on day 23, Day 50): 0.082
effects on lipid parameters (ANGPTL3 gene; co-administration of atorvastatin (Groups 3 and 4), LDLR KO mice on high fat diet): additive effects
total reductions in triglycerides (ANGPTL3 gene; co-administration of atorvastatin and RNAi agent (Groups 3 and 4), LDLR KO mice on high fat diet): ~ 95%
Average ANGPTL3 Protein Normalized to Pre-Treatment (ANGPTL3 protein; Day 8): 0.232
Average ANGPTL3 Protein Normalized to Pre-Treatment (ANGPTL3 protein; Day 15): 0.240
Average ANGPTL3 Protein Normalized to Pre-Treatment (ANGPTL3 protein; Day 22): 0.239
Average ANGPTL3 Protein Normalized to Pre-Treatment (ANGPTL3 protein; Day 29): 0.258
Average ANGPTL3 Protein Normalized to Pre-Treatment (ANGPTL3 protein; Day 35): 0.332
reduction in ANGPTL3 protein compared to pre-treatment (ANGPTL3 protein; each of the measured time points, single 2.0 mg/kg subcutaneous, cynomolgus monkeys): reduction

From patent publication US12729377B2, “RNAi agents and compositions for inhibiting expression of angiopoietin-like 3 (ANGPTL3), and methods of use” (Arrowhead Pharmaceuticals, Inc., priority 2017, dated 2026)
